Measured values reported in ChEMBL document CHEMBL5465560, “Selectivity Literature for EUbOPEN Chemogenomic Library” (2024).

Legend:
[1] = molecular target: Leukocyte tyrosine kinase receptor (Homo sapiens, UniProt P29376); conditions: at 10 µM
[2] = molecular target: Platelet-derived growth factor receptor beta (Homo sapiens, UniProt P09619); assay: Selectivity interaction (KinomeScan (DiscoverX)) EUB0000699a PDGFRB; conditions: at 10 µM
[3] = tested on: Tyrosine-protein kinase ABL1 (Homo sapiens), P00519 [M351T]; conditions: at 10 µM
[4] = molecular target: Protein kinase C eta type (Homo sapiens) (UniProt P24723); assay: Selectivity interaction (KinomeScan (DiscoverX)) EUB0000229b PRKCH; conditions: at 10 µM
Chain of Protein kinase C eta type (Homo sapiens) (P24723 whole entry): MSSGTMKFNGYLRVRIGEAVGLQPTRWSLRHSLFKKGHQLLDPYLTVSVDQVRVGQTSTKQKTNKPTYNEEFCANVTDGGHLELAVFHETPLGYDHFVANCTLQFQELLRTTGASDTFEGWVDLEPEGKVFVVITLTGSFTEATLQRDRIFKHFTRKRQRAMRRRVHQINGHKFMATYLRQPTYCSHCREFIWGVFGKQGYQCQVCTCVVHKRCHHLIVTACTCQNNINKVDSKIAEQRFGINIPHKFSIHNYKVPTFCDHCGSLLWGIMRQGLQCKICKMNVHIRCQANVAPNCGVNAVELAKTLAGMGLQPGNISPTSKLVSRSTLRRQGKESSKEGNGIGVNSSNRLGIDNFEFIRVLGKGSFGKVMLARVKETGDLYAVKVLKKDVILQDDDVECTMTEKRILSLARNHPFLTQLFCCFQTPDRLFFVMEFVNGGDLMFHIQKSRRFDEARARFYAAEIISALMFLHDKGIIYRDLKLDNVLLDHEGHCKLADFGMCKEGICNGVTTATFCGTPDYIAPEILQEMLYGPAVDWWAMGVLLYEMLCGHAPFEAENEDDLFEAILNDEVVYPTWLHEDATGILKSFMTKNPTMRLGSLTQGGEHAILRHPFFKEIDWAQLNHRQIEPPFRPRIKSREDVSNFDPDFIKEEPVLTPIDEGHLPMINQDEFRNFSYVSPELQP

[5] = molecular target: Calcium/calmodulin-dependent protein kinase type II subunit alpha (Homo sapiens, UniProt Q9UQM7); assay: Selectivity interaction (KinomeScan (DiscoverX)) EUB0000092b CAMK2A; conditions: at 10 µM
[6] = molecular target: T1, Serine/threonine-protein kinase DCLK3 (Homo sapiens) (UniProt Q9C098); assay: Selectivity interaction (KinomeScan (DiscoverX)) EUB0000655a DCLK3; conditions: at 10 µM
T1 sequence (whole entry): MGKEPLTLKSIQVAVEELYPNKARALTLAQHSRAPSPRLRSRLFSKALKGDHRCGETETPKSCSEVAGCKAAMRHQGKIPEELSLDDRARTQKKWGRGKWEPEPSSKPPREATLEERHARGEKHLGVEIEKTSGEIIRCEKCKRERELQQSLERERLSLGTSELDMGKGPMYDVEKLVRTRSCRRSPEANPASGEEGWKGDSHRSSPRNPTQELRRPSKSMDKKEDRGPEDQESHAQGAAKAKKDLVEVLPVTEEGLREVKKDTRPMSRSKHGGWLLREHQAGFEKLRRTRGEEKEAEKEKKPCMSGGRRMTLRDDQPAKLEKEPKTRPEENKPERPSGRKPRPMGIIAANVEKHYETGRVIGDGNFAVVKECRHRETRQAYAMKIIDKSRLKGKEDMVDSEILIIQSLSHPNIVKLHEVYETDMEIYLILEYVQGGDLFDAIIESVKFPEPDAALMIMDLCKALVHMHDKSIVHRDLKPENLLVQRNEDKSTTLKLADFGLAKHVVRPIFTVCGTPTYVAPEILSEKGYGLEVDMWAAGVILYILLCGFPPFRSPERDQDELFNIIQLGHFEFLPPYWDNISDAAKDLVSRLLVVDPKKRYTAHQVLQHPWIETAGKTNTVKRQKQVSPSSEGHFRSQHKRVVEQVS

[7] = tested on: Fibroblast growth factor receptor 1 (Homo sapiens), P11362 [V561M]; assay: Selectivity interaction (LanthaScreen Eu Kinase Binding Assay) EUB0001632a FGFR1; conditions: at 10 µM
Chain of Fibroblast growth factor receptor 1 (Homo sapiens), P11362 [V561M] (P11362 whole entry V561M): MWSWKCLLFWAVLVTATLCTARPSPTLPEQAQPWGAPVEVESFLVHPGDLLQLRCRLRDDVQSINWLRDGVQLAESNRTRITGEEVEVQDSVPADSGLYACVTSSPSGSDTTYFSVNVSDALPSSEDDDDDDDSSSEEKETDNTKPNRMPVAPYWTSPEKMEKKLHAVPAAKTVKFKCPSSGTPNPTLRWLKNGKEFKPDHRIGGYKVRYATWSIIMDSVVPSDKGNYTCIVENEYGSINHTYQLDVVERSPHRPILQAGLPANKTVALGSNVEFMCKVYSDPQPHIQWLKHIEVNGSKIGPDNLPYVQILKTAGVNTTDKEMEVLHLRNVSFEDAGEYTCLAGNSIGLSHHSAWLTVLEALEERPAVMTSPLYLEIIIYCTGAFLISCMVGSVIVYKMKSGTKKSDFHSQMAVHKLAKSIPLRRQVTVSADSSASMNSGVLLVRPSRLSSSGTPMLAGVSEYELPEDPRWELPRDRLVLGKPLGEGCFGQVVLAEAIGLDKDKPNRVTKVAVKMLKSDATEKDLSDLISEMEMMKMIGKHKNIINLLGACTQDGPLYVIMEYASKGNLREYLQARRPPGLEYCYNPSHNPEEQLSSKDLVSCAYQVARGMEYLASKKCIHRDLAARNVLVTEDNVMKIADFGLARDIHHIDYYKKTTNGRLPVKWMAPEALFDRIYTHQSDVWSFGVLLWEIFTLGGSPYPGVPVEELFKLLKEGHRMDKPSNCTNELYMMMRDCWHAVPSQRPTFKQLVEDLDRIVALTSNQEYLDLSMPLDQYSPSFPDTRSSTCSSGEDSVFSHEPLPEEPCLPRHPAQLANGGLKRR

[8] = molecular target: G protein-coupled receptor kinase 6 (Homo sapiens) (UniProt P43250); assay: Selectivity interaction (Kinase panel (Invitrogen)) EUB0000639a GRK6; conditions: at 200 nM
[9] = molecular target: Serine/threonine-protein kinase N1 (Homo sapiens, UniProt Q16512); assay: Selectivity interaction (ActivX KiNativ screen (kinase selectivity in THP-1 cell lysates)) EUB0000639a PKN1; assay type: subcellular; conditions: lysate, at 1 µM
Chain of Serine/threonine-protein kinase N1 (Q16512 2-942 limits assumed): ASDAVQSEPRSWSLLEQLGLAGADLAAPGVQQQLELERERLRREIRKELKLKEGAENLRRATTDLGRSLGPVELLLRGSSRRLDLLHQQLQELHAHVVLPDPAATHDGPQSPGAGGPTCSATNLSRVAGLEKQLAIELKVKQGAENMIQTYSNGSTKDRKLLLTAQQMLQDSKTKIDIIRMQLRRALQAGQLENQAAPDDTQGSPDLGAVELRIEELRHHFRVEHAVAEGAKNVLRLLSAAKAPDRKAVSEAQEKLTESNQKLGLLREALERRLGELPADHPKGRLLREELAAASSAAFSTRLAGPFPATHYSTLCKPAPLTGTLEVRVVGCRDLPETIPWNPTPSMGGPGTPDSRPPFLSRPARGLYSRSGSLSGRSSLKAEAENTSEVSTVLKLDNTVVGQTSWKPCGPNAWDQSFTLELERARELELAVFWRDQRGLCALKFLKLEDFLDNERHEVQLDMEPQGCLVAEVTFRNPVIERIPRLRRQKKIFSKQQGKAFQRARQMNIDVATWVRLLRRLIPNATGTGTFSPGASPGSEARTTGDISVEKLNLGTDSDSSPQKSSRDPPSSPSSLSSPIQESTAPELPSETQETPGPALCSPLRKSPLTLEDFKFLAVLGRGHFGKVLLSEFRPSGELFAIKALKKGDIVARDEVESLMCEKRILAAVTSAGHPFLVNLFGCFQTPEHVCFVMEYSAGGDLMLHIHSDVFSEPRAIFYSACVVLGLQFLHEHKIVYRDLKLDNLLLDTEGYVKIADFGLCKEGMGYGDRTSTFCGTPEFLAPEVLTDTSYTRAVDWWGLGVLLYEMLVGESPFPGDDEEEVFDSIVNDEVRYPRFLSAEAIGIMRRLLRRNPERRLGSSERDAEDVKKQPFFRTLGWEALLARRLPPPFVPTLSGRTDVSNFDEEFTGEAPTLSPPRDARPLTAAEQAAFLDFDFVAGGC

[10] = molecular target: Serine/threonine-protein kinase mTOR (Homo sapiens, UniProt P42345); assay: Selectivity interaction (ActivX KiNativ screen (kinase selectivity in THP-1 cell lysates)) EUB0000639a MTOR; assay type: subcellular; conditions: lysate
[11] = molecular target: Tyrosine-protein kinase Blk (Homo sapiens) (UniProt P51451); assay: Selectivity interaction (SelectScreen profiling (Invitrogen)) EUB0000607a BLK; conditions: at 2 µM
Chain of Tyrosine-protein kinase Blk (Homo sapiens) (P51451 2-505 limits assumed): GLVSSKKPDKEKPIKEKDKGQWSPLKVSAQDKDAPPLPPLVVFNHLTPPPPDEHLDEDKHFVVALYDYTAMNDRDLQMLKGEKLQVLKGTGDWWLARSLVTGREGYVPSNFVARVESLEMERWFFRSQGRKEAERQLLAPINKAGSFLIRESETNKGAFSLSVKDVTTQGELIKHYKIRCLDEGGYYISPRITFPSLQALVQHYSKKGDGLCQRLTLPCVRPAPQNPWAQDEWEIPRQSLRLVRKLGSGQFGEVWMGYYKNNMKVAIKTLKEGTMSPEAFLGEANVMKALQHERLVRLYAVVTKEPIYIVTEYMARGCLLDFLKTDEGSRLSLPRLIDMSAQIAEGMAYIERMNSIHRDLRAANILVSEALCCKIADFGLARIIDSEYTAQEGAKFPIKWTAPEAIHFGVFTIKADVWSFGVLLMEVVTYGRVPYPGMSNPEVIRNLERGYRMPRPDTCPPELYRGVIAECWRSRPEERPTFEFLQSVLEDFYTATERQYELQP

[12] = molecular target: T2, Dual specificity tyrosine-phosphorylation-regulated kinase 4 (Homo sapiens) (UniProt Q9NR20); assay: Selectivity interaction (SelectScreen profiling (Invitrogen)) EUB0000607a DYRK4; conditions: at 2 µM
T2 sequence (whole entry): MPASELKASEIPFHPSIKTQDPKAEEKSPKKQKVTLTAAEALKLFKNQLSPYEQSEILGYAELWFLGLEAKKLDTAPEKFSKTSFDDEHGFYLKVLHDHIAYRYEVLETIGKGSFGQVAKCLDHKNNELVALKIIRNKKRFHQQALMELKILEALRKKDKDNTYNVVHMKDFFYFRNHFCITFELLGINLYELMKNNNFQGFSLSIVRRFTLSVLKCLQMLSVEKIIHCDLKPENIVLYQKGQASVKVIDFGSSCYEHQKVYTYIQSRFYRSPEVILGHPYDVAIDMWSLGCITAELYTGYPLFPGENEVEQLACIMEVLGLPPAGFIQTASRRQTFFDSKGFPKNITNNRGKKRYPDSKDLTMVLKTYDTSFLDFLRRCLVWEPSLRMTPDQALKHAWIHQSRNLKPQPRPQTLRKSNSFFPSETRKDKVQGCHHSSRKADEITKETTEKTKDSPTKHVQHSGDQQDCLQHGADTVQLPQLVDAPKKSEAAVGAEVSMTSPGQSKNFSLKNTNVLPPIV

[13] = tested on: Leucine-rich repeat serine/threonine-protein kinase 2 (Homo sapiens), Q5S007 [G2019S]; assay: (§1) Selectivity interaction (KinomeScan (DiscoverX)) EUB0001049a LRRK2; conditions: at 1 µM
[14] = molecular target: Leucine-rich repeat serine/threonine-protein kinase 2 (Homo sapiens, UniProt Q5S007); assay: as §1; conditions: at 1 µM
[15] = molecular target: T3, Serine/threonine-protein kinase tousled-like 1 (Homo sapiens) (UniProt Q9UKI8); assay: Selectivity interaction (KinomeScan (DiscoverX)) EUB0001619a TLK1; conditions: at 1 µM
T3 sequence (whole entry): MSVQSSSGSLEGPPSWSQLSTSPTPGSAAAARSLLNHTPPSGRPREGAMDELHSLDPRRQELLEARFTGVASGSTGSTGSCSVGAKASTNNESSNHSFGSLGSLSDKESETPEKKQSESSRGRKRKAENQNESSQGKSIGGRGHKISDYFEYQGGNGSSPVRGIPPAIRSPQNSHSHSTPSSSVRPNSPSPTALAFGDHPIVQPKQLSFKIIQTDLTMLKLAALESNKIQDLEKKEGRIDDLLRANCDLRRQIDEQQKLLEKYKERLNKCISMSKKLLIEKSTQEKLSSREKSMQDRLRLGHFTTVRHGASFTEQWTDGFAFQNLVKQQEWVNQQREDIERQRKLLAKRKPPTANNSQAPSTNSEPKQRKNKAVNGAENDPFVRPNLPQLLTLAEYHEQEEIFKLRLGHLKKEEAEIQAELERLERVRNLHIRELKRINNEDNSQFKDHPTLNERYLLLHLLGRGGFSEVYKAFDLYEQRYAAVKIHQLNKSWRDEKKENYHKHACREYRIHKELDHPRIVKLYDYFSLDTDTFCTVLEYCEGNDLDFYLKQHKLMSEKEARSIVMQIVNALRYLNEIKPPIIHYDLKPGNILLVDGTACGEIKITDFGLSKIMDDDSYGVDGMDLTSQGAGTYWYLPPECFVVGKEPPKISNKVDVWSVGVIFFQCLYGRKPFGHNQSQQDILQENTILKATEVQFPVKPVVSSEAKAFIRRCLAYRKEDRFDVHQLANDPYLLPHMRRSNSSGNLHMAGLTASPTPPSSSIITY

Chain of Platelet-derived growth factor receptor beta (P09619 whole entry): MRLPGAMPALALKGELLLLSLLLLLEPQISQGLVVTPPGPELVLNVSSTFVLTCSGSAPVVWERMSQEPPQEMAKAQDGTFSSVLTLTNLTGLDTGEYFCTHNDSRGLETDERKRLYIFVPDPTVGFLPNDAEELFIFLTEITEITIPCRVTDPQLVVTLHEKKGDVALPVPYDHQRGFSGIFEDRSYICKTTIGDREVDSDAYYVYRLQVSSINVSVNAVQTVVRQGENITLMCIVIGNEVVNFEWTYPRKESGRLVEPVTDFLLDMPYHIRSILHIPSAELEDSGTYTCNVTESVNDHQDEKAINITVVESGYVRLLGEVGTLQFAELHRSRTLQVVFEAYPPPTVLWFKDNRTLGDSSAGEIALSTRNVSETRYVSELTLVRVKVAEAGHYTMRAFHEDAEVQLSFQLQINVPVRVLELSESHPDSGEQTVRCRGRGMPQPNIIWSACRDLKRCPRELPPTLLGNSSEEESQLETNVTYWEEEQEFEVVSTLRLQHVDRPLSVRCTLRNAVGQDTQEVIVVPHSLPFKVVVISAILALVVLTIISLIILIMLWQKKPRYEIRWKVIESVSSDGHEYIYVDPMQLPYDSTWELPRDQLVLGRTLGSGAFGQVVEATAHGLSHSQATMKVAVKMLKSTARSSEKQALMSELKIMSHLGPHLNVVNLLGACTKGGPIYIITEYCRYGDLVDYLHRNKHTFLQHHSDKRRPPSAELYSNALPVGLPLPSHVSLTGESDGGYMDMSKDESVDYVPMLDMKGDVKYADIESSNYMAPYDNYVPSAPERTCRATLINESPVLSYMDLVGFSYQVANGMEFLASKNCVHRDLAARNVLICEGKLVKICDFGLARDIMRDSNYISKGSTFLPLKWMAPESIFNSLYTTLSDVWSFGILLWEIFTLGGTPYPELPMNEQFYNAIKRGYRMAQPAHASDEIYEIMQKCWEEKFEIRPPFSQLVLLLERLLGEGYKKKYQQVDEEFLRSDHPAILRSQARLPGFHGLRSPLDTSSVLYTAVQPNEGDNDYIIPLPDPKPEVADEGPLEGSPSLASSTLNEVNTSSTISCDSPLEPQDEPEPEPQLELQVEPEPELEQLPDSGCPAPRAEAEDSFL
Chain of Leukocyte tyrosine kinase receptor (P29376 whole entry): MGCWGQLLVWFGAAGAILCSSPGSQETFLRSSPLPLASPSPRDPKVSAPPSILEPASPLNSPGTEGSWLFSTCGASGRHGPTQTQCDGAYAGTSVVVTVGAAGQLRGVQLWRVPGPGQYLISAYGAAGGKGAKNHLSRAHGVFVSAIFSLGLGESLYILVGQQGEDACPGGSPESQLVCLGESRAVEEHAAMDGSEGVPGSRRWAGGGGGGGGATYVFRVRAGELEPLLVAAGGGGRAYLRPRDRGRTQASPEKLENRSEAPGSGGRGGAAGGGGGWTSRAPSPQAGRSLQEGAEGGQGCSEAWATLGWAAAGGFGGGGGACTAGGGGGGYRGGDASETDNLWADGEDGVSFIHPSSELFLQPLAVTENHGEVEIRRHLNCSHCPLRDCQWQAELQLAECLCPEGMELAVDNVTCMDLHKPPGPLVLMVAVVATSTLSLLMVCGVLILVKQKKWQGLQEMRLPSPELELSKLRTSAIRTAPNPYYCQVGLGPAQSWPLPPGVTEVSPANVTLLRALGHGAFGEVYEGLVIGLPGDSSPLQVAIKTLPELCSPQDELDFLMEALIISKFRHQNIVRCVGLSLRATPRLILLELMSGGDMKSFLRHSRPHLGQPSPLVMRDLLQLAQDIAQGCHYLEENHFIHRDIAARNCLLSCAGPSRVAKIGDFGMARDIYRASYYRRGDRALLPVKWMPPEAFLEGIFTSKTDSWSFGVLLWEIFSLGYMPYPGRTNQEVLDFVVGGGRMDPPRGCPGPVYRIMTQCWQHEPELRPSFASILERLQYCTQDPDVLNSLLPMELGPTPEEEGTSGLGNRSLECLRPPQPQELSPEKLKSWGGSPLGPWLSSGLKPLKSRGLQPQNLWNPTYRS

For CCN(CC)CCCCNc1ncc2cc(-c3cc(OC)cc(OC)c3)c(NC(=O)NC(C)(C)C)nc2n1, the % of control [1] was 100%, the % of control [2] was 38% and the % of control [3] was 100%.

Molecule COc1cc(N(C)c2ccnc3ccc(C(F)(F)F)cc23)cc(OC)c1OC has a % binding [4] of 96%.

CCC(=O)N1CCN(c2ccc(-n3c(=O)ccc4cnc5ccc(-c6cnc7ccccc7c6)cc5c43)cc2C(F)(F)F)CC1 showed a % of control [5] of 93%.

With CN(C)CCOc1ccc(-c2nc(-c3ccncc3)c(-c3ccc4c(c3)CC/C4=N\O)[nH]2)cc1 the % of control [6] was 89%.

Molecule Cn1cc(-n2cnc3c(NCc4nc5cc(Cl)c(Cl)cc5[nH]4)nc(N4CCOCC4)nc32)cn1 has a % of inhibition [7] of -8.96%.

With CC[C@@H]1[C@H](F)C(=O)N[C@@H]1COc1nccc2cc(C(N)=O)c(OC)cc12 [ZIMLOVISERTIB] the % of inhibition [8] was 3.09%, the % of inhibition [9] was -0.1% and the % of inhibition ([10]; at 0.01 µM) was 8%. For the same molecule, the % of inhibition ([10]; at 0.04 µM) was 3%, the % of inhibition ([10]; at 0.2 µM) was 4.3% and the % of inhibition ([10]; at 1 µM) was 9.9%. The % of inhibition ([10]; at 5 µM) was -4.7%.

In the case of CNC(=O)Nc1ccc(-c2nc(N3CC4CCC(C3)O4)c3cnn(C4CCC5(CC4)OCCO5)c3n2)cc1, the % of inhibition [11] is reported as 1% and the % of inhibition [12] is reported as 4%.

COc1cc(Nc2nc(C)cc(-c3cnn4nc(OC)ccc34)n2)cc(C(F)(F)F)c1 showed a % of control [13] of 100% and a % of control [14] of 100%.

With N#Cc1cccc(-c2c[nH]c3ncnc(N4CCOCC4)c23)c1 the % of control [15] was 99%.
